Read-outs that look alike come from different tables or passages of the source.
Assays:
P. falciparum strains [1] = test system: P. falciparum strains; design: key: R = Clinically Resistant; S + Sensitive; settings: cited from earlier work
P. falciparum strains [2] = assay: 3H hypoxanthine incorporation assay of P. falciparum strains in human red blood cells; format: cell-based, Plasmodium falciparum
Protocol: The potency of the compounds of the invention against multi-drug resistant P. falciparum strains was tested. Parasites were cultured in 96-well plates in human red blood cells at 0.5% initial parasitemia for 72 hours in the presence of dilutions of tartrolon D/E (specifically, D2 as the starting material in FIG. 11A), purified tartrolon E (FIG. 11C), dihydroartemisinin (DHA, as a positive control in FIG. 11B), or DMSO (as a negative control). Parasites proliferation was then determined by ^3H hypoxanthine incorporation.
Specifically, parasitized red blood cells (pRBCs) were grown in 0.5% Albumax I (Thermo Fisher Scientific). Assays were set up in 96-well plates at 0.5% initial parasitemia and 0.5% hematocrit. Parasites were exposed to various concentrations of Tartrolon D or E and dihydroartemisinin (DHA) for 48 hours and then pulsed with 0.5 microcuries of tritium-labeled hypoxanthine Moravek (MT-700) for another 24 hours. At the end of 72 hours, assay plates were processed through an Inotech cell harvester and collected on Inotech glass fiber filters. Filters were transferred to Omniplate-96 cassettes (Perkin Elmer) and dried overnight at room temperature. About […] of Microscint-O scintillation cocktail (Perkin Elmer) was added to each well. Each well was counted for 2 minutes on a Packard Topcount scintillation counter. The uptake of radiolabeled hypoxanthine by compound-treated pRBCs was compared relative to uptake by DMSO solvent-treated controls. […] The starting material used as the active reagent in FIG. 11C was tartrolon E, purified as follows: extract from the bacterial pellet of the Teredinibacter turnerae T7901 was purified by reversed phase HPLC using diode array detection. A C18 column (Phenomenex CHO-7878, 100×10 mm) was employed with an isocratic mobile phase (85% acetontrile in water, 3.5 mL/min) to yield tartrolon E (4.7 mg, retention time 8 min).

[3] = test system: Plasmodium falciparum 3D7; assay: P. falciparum SYBR green flow cytometry assay; format: cell-based; settings: 72 hours, read-out: EC50, proliferation of Plasmodium falciparum 3D7
Protocol: Plasmodium falciparum: Parasites were cultured in 96-well plates at 0.5% initial parasitemia. Parasites were cultured for 72 hours in the presence of dilutions of tartrolon D2, dihydroartemisinin (DHA, a drug for treating malaria as a positive control) or DMSO after which parasites were stained with SYBR green fluorescence and enumerated by flow cytometry. The assay was conducted once and all samples were run in triplicate. Data was analyzed with GraphPad Prism as described for T. gondii.

C. parvum [4] = assay: Neonatal mouse model of C. parvum infection, histological scoring; format: in vivo, Cryptosporidium parvum; settings: neonatal mice, 2 mg/kg/dose b.i.d. for 4 days, histological score
Protocol: To determine if tartrolon D/E would be effective in vivo, the purified compound(s) of the invention was tested in a neonatal mouse model of C. parvum infection (Schaefer D A et al. (2000) Infect Immun 68(5):2608-261). Eight-day old neonatal mice were infected with C. parvum oocysts (50 times the ID50) and treated with purified tartrolon D/E (specifically, D1) or vehicle as a starting material for 4 days at 2 mg/kg/dose (b.i.d). At the end of the study period, mice were sacrificed and histological sections of jejunum, ileum, colon and caecum were examined. Infection in each section was scored by an observer blinded as to the sample identity.

Toxoplasma gondii ME49 = assay: Bright-Glo luciferase assay of parasite proliferation in HFF cells; format: cell-based
Protocol: Human foreskin fibroblast (HFF) cells were established in 96-well plates, and then infected with ME49 parasites engineered to express green fluorescent protein and firefly luciferase (2.5 to 5×10^5/well). Eight hours after infection, dilutions of Tartrolon D1 isolated as in Example 3, Tartrolon D2 isolated as in Example 4, or vehicle (DMSO) at equivalent concentrations were added to infected cells and the plates incubated for 24 hours (37° C., 5% CO2). Proliferation of the parasites was then measured using Bright-Glo luciferase assay system (available from Promega). Samples were run in triplicate and three independent biological replicates were conducted. The log 10 [Tartrolon D] versus percent inhibition of parasite proliferation was analyzed using the four parameter variable slope analysis in Graphpad Prism.

Babesia bovis = assay: SYBR green-based growth suppression assay in bovine red blood cells; format: cell-based; settings: for EC50: SYBR green fluorescence, read-out: EC50 against B. bovis
Protocol: Purified tartrolon D/E (with starting materials being either D1 or D2) was tested against another apicomplexan pathogen, Babesia bovis, which proliferates in bovine red blood cells. Growth suppression of B. bovis was quantified using a modified SybrGreen-based assay (Molecular Probes, Life Sciences Technology). SYBR green is an asymmetrical cyanine dye that is used as a nucleic acid stain. In this assay, parasite replication in red blood cells is measured directly by the incorporation of SYBR green into parasite DNA. Tartrolon D/E concentrations ranging from 0.001 to 10,000 nM were tested on infected cells and DMSO (vehicle) was run in parallel as a negative control.

C. parvum [5] = assay: Neonatal mouse C. parvum infection, quantitative PCR of intestinal parasites; format: in vivo, Cryptosporidium parvum; settings: neonatal mice, qPCR
Protocol: To confirm the in vivo activity against Cryptosporidium parvum, neonatal mice were infected with C. parvum (5×10^4 oocysts per mouse), and 24 hours after infection, the mice were dosed twice daily for 4 days with either 4 or 40 mg/kg of tartrolon D/E (specifically, D2) in starting concentrations. Day 5 post-infection, the mice were sacrificed, the intestines collected and total DNA extracted. Intestinal parasite numbers were quantified by quantitative PCR (qPCR) of the C. parvum HSP70 gene and extrapolation to a standard curve standard curve of known oocyst numbers (see Shahiduzzaman, et al., Vet Parasitol 167, 43-9 (2010)). At both the high and the low dose of Tartrolon D/E, nearly 100% of the parasites were eliminated from the intestine as measured by quantitative PCR.

Plasmodium berghei = assay: Plasmodium berghei-luciferase infection in mice, IVIS imaging; format: in vivo; settings: 8 mg/kg intraperitoneal once per day for 5 days, imaged seven days after infection
Protocol: Mice were infected with Plasmodium berghei expressing luciferase. 48 hours post infection mice were treated with tartrolon D/E (specifically, D2) initially solubilized in 2% methylcellulose and 0.5% Tween80 by intraperitoneal injection for 5 days, once per day. Control mice were treated with vehicle alone. Seven days after infection, mice were given luciferase substrate (150 mg/kg D-luciferin Potassium salt in PBS (Goldbio)) and imaged in an IVIS Lumina II to quantify level of infection.

Theileria equi = assay: T. equi growth in erythrocytes, hydroethidine flow cytometry; format: cell-based; settings: Erythrocyte, 72 hours, averaged from three independent experiments, read-out: EC50, proliferation of Theileria equi
Protocol: Theileria equi: The effect of tartrolon D2 on T. equi growth in vitro was quantified using an assay that has been previously described by Hines, S. A. et al. (Parasit Vectors 8, 33 (2015)). Briefly, wells containing an erythrocyte concentration of 9% and a starting percentage parasitized erythrocyte (ppe) of 0.3% were established in 96-well plates. Parasites were cultured in the presence of tartrolon D2 or DMSO for 72 hours with a change of media and compound every 24 hours. After 72 hours, the parasites were stained with hydroethidine and enumerated by flow cytometry (FACSCaliber). Samples were run in triplicate and three independent experiments conducted. The data was analyzed and the EC50 values calculated as described above for T. gondii ME49.

Sarcocystis neurona = assay: S. neurona luciferase proliferation assay in bovine turbinate cells; format: cell-based; settings: BT cells, 96 hours
Protocol: Sarcocystis neurona: Bovine turbinate cells (BT cells, ATCC CRL-1390, American Type Culture Collection, Manassas, Va.) were seeded into 96-well plates and infected with S. neurona merozoites that had been engineered to express green fluorescent protein and firefly luciferase (2×10^4/well). Dilutions of tartrolon D2 or DMSO were added to the infected cells and the plates incubated for 96 hours (37° C., 5% CO2). After 96 hours, parasite proliferation was quantified and the data analyzed as described with T. gondii ME49. The assay was conducted once and all samples were run in triplicate.

[6] = cell line 3D7 (Netherlands, clone of NF54)
[7] = cell line Goan Isolate (Goa, India)

Structure (SMILES) | Drug resistance phenotype (P. falciparum strains [1]; [6]) | Drug resistance phenotype (P. falciparum strains [1]; cell line 7G8 (Brazil)) | Drug resistance phenotype (P. falciparum strains [1]; cell line D6 (Sierra Leone)) | Drug resistance phenotype (P. falciparum strains [1]; cell line Dd2 (SE Asia)) | Drug resistance phenotype (P. falciparum strains [1]; [7]) | Drug resistance phenotype (P. falciparum strains [1]; cell line HB3 (Honduras)) | Drug resistance phenotype (P. falciparum strains [1]; cell line NF54 (Netherlands)) | Drug resistance phenotype (P. falciparum strains [1]; cell line V1/S (Vietnam)) | other results
OC(c1cc(C(F)(F)F)nc2c(C(F)(F)F)cccc12)C1CCCCN1 (stereo not shown) [Mefloquine] | S | S | S | R | S | S | S | S | Drug resistance phenotype (P. falciparum strains [1]; cell line TM90C2A (Thailand)): R
CC1(C)N=C(N)N=C(N)N1c1ccc(Cl)cc1 [Cycloguanil] | S | R | S | R | R | S | S | R | Drug resistance phenotype (P. falciparum strains [1]; cell line TM90C2A (Thailand)): R
COc1ncnc(NS(=O)(=O)c2ccc(N)cc2)c1OC [Sulfodoxine] | R | – | S | R | R | S | R | – | –
C=C[C@H]1C[N@@]2CC[C@H]1C[C@H]2[C@H](O)c1ccnc2ccc(OC)cc12 [Quinine] | S | R | S | R | – | S | S | R | –
C[C@@H]1CCC2CC(=O)C[C@@H](O)CC/C=C/C=C\CC[C@H](C)OC(=O)[C@@H]3O[B-]45O[C@@H](C(=O)O[C@@H](C)CC/C=C\C=C\CC[C@H](O)CC(=O)CC6CC[C@@H](C)[C@]3(O6)O4)[C@@]1(O2)O5 [Tartrolon E, tartrolon E] | – | – | – | – | – | – | – | – | EC50 (P. falciparum strains [2]; strain Dd2, purified tartrolon E as starting material (FIG. 11C), read-out: EC50 against Dd2): ~0.16 nM
C[C@H]1[C@@H](O)O[C@@H]2O[C@@]3(C)CC[C@H]4[C@H](C)CC[C@@H]1[C@@]24OO3 [Dihydroartemisinin, dihydroartemisinin] | – | – | – | – | – | – | – | – | EC50 [3]: ~0.02 nM; EC50 (P. falciparum strains [2]; Plasmodium falciparum, 3D7, Erythrocyte, parasite line 3D7, read-out: EC50): 0.2 nM; EC50 (P. falciparum strains [2]; Plasmodium falciparum, DD2, Erythrocyte, parasite line Dd2, read-out: EC50): 0.14 nM; EC50 (P. falciparum strains [2]; Plasmodium falciparum, Erythrocyte, parasite line 7G8, read-out: EC50): 0.095 nM; EC50 (P. falciparum strains [2]; Plasmodium falciparum, Erythrocyte, parasite line 2012 Indian Isolate (Goa), read-out: EC50): 0.21 nM; EC50 (P. falciparum strains [2]; Plasmodium falciparum, Erythrocyte, parasite line D6, read-out: EC50): 0.17 nM; EC50 (P. falciparum strains [2]; Plasmodium falciparum, Erythrocyte, parasite line V1S, read-out: EC50): 0.084 nM; EC50 (P. falciparum strains [2]; Plasmodium falciparum, HB3, Erythrocyte, parasite line HB3, read-out: EC50): 0.16 nM; EC50 (P. falciparum strains [2]; Plasmodium falciparum, NF54, Erythrocyte, parasite line NF54, read-out: EC50): 0.15 nM; EC50 (P. falciparum strains [2]; Plasmodium falciparum, TM90C2A, Erythrocyte, parasite line TM90C2A, read-out: EC50): 0.091 nM; EC50 (P. falciparum strains [2]; parasite line 3D7, listed as Dihydroartemisinin (DHA), read-out: EC50): 0.11 nM
C[C@@H]1C(=O)C[C@@H](O)CC/C=C/C=C\CC[C@H](C)OC(=O)C(O)[C@]2(O)O[C@@H](CC[C@H]2C)[C@H](C)C(=O)C[C@@H](O)CC/C=C/C=C\CC[C@H](C)OC(=O)C(O)[C@]2(O)O[C@H]1CC[C@H]2C (stereo partly shown) [Tartrolon D1, tartrolon D] | – | – | – | – | – | – | – | – | inhibition of infection (C. parvum [4]): about 50%; EC50 (Toxoplasma gondii ME49; Toxoplasma gondii, HFF, read-out: EC50 against T. gondii ME49, added 8 h after infection, 24 hours, 3 independent experiments): 3.4 nM; concentration at which parasites did not incorporate any more fluorescence than uninfected red blood cells (Babesia bovis): more than 20 nM; EC50 (Babesia bovis; Babesia bovis, Erythrocyte): 11.2 nM
C[C@@H]1C(=O)C[C@@H](O)CC/C=C/C=C\CC[C@H](C)OC(=O)C(O)[C@]2(O)O[C@@H](CC[C@H]2C)[C@H](C)C(=O)C[C@@H](O)CC/C=C/C=C\CC[C@H](C)OC(=O)C(O)[C@]2(O)O[C@H]1CC[C@H]2C (stereo partly shown) [Tartrolon D2, tartrolon D] | – | – | – | – | – | – | – | – | parasites eliminated from the intestine (C. parvum [5]; high dose 40 mg/kg twice daily for 4 days from 24 h after infection): ~100%; parasites eliminated from the intestine (C. parvum [5]; low dose 4 mg/kg twice daily for 4 days from 24 h after infection): ~100%; EC50 (Toxoplasma gondii ME49; read-out: EC50 against T. gondii ME49, added 8 h after infection, 24 hours, 3 independent experiments): 2.7 nM; P. berghei infection (luminescence) (Plasmodium berghei): reduced P. berghei infection; EC50 (Theileria equi): ~0.35 nM; EC50 [3]: ~0.105 nM; EC50 (Sarcocystis neurona): ~13.2 nM; EC50 (Babesia bovis; listed as tartrolon D2/E): 16 nM
